Assay results published in the NIST ThermoML archive (doi:10.1016/j.tca.2009.10.001).
± gives the expanded uncertainty stated by the source.

What was measured:
[1] = Liquid; for viscosity: Capillary tube (Ostwald / Ubbelohde) method; for speed of sound: Linear variable-path acoustic interferometer; for mass density: Pycnometric method
[2] = xn = mol fraction of the nth substance listed; settings: 101 kPa, Liquid, x1 = 1; for viscosity: Capillary tube (Ostwald / Ubbelohde) method; for speed of sound: Linear variable-path acoustic interferometer; for mass density: Pycnometric method

SMILES | viscosity ([1]; 298.15 K, 101.33 kPa) | speed of sound ([1]; 298.15 K, 101.33 kPa) | mass density ([1]; 298.15 K, 101.33 kPa) | viscosity ([1]; 303.15 K, 101.33 kPa) | speed of sound ([1]; 303.15 K, 101.33 kPa) | mass density ([1]; 303.15 K, 101.33 kPa) | viscosity ([1]; 308.15 K, 101.33 kPa) | speed of sound ([1]; 308.15 K, 101.33 kPa) | mass density ([1]; 308.15 K, 101.33 kPa) | viscosity ([2]; 298.15 K) | speed of sound ([2]; 298.15 K) | mass density ([2]; 298.15 K) | viscosity ([2]; 303.15 K) | speed of sound ([2]; 303.15 K) | mass density ([2]; 303.15 K) | viscosity ([2]; 308.15 K) | speed of sound ([2]; 308.15 K) | mass density ([2]; 308.15 K) | further results
CC#N [acetonitrile] | 0.3696 ± 0.0053 mPa·s | 1271.3 ± 1.8 m/s | 775.3 ± 0.3 kg/m3 | 0.3554 ± 0.0052 mPa·s | 1251.9 ± 1.8 m/s | 769.9 ± 0.3 kg/m3 | 0.3414 ± 0.0052 mPa·s | 1231.7 ± 1.7 m/s | 764.7 ± 0.4 kg/m3 | – | – | – | – | – | – | – | – | – | –
CCCC#N [butanenitrile] | 0.5463 ± 0.0061 mPa·s | 1271.4 ± 1.8 m/s | 784.7 ± 0.3 kg/m3 | 0.5255 ± 0.006 mPa·s | 1252.2 ± 1.8 m/s | 780.3 ± 0.4 kg/m3 | 0.5049 ± 0.0059 mPa·s | 1233.9 ± 1.7 m/s | 775.9 ± 0.4 kg/m3 | – | – | – | – | – | – | – | – | – | –
CCC#N [propanenitrile] | 0.4107 ± 0.0055 mPa·s | 1252.4 ± 1.8 m/s | 775.4 ± 0.3 kg/m3 | 0.3991 ± 0.0054 mPa·s | 1232.7 ± 1.7 m/s | 769.9 ± 0.3 kg/m3 | 0.3822 ± 0.0053 mPa·s | 1213.7 ± 1.7 m/s | 765.2 ± 0.4 kg/m3 | – | – | – | – | – | – | – | – | – | –
Cc1ccccc1 [toluene] | – | – | – | – | – | – | – | – | – | – | – | – | – | – | – | – | – | – | viscosity ([1]; 298.15 K, 101 kPa): 0.5635 ± 0.0056 mPa·s; speed of sound ([1]; 298.15 K, 101 kPa): 1299.8 ± 1.5 m/s; mass density ([1]; 298.15 K, 101 kPa): 860.9 ± 0.3 kg/m3; viscosity ([1]; 303.15 K, 101 kPa): 0.5344 ± 0.0055 mPa·s; speed of sound ([1]; 303.15 K, 101 kPa): 1279.5 ± 1.5 m/s; mass density ([1]; 303.15 K, 101 kPa): 856 ± 0.3 kg/m3; viscosity ([1]; 308.15 K, 101 kPa): 0.5091 ± 0.0054 mPa·s; speed of sound ([1]; 308.15 K, 101 kPa): 1260.7 ± 1.5 m/s; mass density ([1]; 308.15 K, 101 kPa): 851.6 ± 0.3 kg/m3
Cc1ccccc1 [toluene] + CC#N | – | – | – | – | – | – | – | – | – | 0.5635 ± 0.0056 mPa·s | 1299.8 ± 1.5 m/s | 860.9 ± 0.3 kg/m3 | 0.5344 ± 0.0055 mPa·s | 1279.5 ± 1.5 m/s | 856 ± 0.3 kg/m3 | 0.5091 ± 0.0054 mPa·s | 1260.7 ± 1.5 m/s | 851.6 ± 0.3 kg/m3 | –
Cc1ccccc1 [toluene] + CCC#N | – | – | – | – | – | – | – | – | – | 0.5635 ± 0.0056 mPa·s | 1299.8 ± 1.5 m/s | 860.9 ± 0.3 kg/m3 | 0.5344 ± 0.0055 mPa·s | 1279.5 ± 1.5 m/s | 856 ± 0.3 kg/m3 | 0.5091 ± 0.0054 mPa·s | 1260.7 ± 1.5 m/s | 851.6 ± 0.3 kg/m3 | –
Cc1ccccc1 [toluene] + CCCC#N | – | – | – | – | – | – | – | – | – | 0.5635 ± 0.0056 mPa·s | 1299.8 ± 1.5 m/s | 860.9 ± 0.3 kg/m3 | 0.5344 ± 0.0055 mPa·s | 1279.5 ± 1.5 m/s | 856 ± 0.3 kg/m3 | 0.5091 ± 0.0054 mPa·s | 1260.7 ± 1.5 m/s | 851.6 ± 0.3 kg/m3 | –
